One assay concerns the target T1, ErbB2 or EGFR.
T1 construct: enzymes purified from a baculovirus expression system
In words: ErbB enzyme substrate phosphorylation assay (HTRF), Method B (enzyme pre-incubated with compound 1 hour). To be noted: Table 1, enzyme Method B: enzyme mix incubated with compound 1 hour at 20° C., reaction started with substrate mix; class over ErbB2 or EGFR. Format: biochemical. Here is the method:
Compounds of the present invention were tested for EGFR, ErbB-2, and ErbB-4 protein tyrosine kinase inhibitory activity in substrate phosphorylation assays using enzymes purified from a baculovirus expression system. Reagent production was conducted essentially as described in Brignola, P. S., et al, (2002) J. Biol. Chem. 277(2): 1576-1585.
The method measures the ability of the isolated enzyme to catalyse the transfer of the gamma-phosphate from ATP onto the tyrosine residue of a biotinylated synthetic peptide referenced “Peptide C” in Brignola, P. S., et al, (2002) J. Biol. Chem. 277(2):1576-1585. The extent of tyrosine phosphorylation was measured using an anti-phosphotyrosine antibody, and quantified by homogenous time-resolved fluorescence (HTRF).
Reactions were performed in black 384-well polystyrene flat-bottom plates in a final volume of 20 μl. Assays were performed by adding 10 μl of each of the following solutions, substrate Mix and enzyme mix: The Substrate mix contained 100 mM 3-[N-morpholino]propanesulfonic acid (MOPS) (pH 7.5), 2 mM MnCl2, 20 μM ATP, 0.01% Tween-20, 0.1 mg/mL (BSA), 0.8 uM peptide substrate, and 1 mM dithiothreitol. The enzyme mix contained 100 mM MOPS (pH7.5); 0.01% Tween-20; 0.1 mg/mL BSA, and either 0.8 nM EGFR, 10 nM ErbB2, or 1 nM ErbB4
During the course of these studies, two separate methods have been used to measure the potency of compounds. In Method A, the substrate mix was added to the compound plates first, then the reaction was started by adding the enzyme mix. In Method B, the enzyme mix was added to the compound plates and the plates were incubated at 20° C. for 1 hour. The reactions were then started by adding the substrate mix.
After initiating the reaction with either method describe above, the reactions were allowed to proceed for 90 minutes at 20° C. The reactions were then terminated by the addition of 20 μl 100 mM EDTA to each well. 40 μl/well of HTRF detection mix were added to the assay plates. The final concentrations of the detection reagents were: 100 mM HEPES (pH7.5), 0.1 mg/mL BSA, 15 nM streptavidin-labeled allophycocyanin (PerkinElmer), and 1 nM europium-labeled anti-phosphotyrosine antibody (PerkinElmer). Assay plates were left unsealed and were counted in a Wallac Multilabel Counter 1420 (PerkinElmer).
Compounds under analysis were dissolved in Me2SO to 1.0 mM and serially diluted 1 to 3 with Me2SO through twelve dilutions. 1 μl of each concentration was transferred to the corresponding well of an assay plate. This creates a final compound concentration range from 0.00027 to 47.6 μM.
The data for dose responses were plotted as % Inhibition calculated with the data reduction formula 100*(1−(U1−C2)/(C1−C2)) versus concentration of compound where U is the unknown value, C1 is the average control value obtained for 4.76% DMSO, and C2 is the average control value obtained for 0.035 M EDTA. Data were fitted with a curve described by: y=((Vmax*x)/(K+x))+Y2 where Vmax is the upper asymptote, Y2 is the Y intercept, and K is the IC50. The results for each compound were recorded as pIC50s, calculated as follows: pIC50=−Log 10(K)

Assay [1] concerns BT474 and HN5 tumor cell lines. As to the kind of experiment: Celltiter Glo growth inhibition assay (cellular Method B). Format: cell-based. To be noted: Homo sapiens, BT-474, 72 h; Table 2, Method B Celltiter Glo, 3 days; class over BT474 and HN5. Here is the method:
(§1) Human breast tumor cells (BT474) were cultured in RPMI, (Invitrogen, 22400) containing 10% fetal bovine serum (FBS). Human head and neck tumor cells (HN5) were cultured in low glucose DMEM (Invitrogen, 12320) containing 10% FBS. Human colon tumor cells (Colo205) were cultured in DMEM (Invitrogen, 10564) containing 10% FBS. All cell lines were maintained at 37° C. in a humidified 5% CO2, 95% air incubator. Cells were harvested using trypsin/EDTA, counted using a haemocytometer, and plated in 30 microliters of the appropriate media described above, at the following densities, in a half area, black-walled, 96-well tissue culture plate (Corning 3882): BT474 3,000 cells/well, HN5 500 cells/well and Colo205 cells, 3,000 cells/well. The next day, compounds were diluted in DMEM containing 100 mg/ml gentamicin, from 10 mM stock solutions in DMSO. 30 microliters/well of these dilutions were added to the 30 microliters/well of media currently on the cell plates. Medium containing 0.6% DMSO was added to control wells. The final concentration of DMSO in all wells was 0.3%. Cells were incubated at 37° C., 5% CO2 for 3 days. Cell biomass was estimated using Celltiter Glo (Promega G7571). Briefly, plates were removed from the incubator and allowed to equilibrate to rt for 30 minutes. 60 microliters of Celltiter Glo reagent were added to each well of the treated cells and plates were shaken on an orbital plate shaker for 2 min. Plates were incubated without shaking for 30 more min and read in a luminometer with an integration time of 0.5 seconds per well. Percent inhibition of cell growth was calculated relative to vehicle treated control wells. Concentration of compound that inhibits 50% of vehicle control cell growth (IC50) was interpolated using nonlinear regression (Levenberg-Marquardt) and the equation, y=Vmax*(1−(x/(K+x)))+Y2, where “K” was equal to the IC50.

The test system of another assay is Colo205 tumor cell lines. Described as above. The format is cell-based. The note with it: Homo sapiens, COLO 205, 72 h, Table 3, Method B Celltiter Glo, 3 days. Here is the method:
as §1

These results are taken from patent US7807673B2, “2-pyrimidinyl pyrazolopyridine ErbB kinase inhibitors” (GlaxoSmithKline LLC, priority 2005, dated 2010).

pIC50: −log10 of the molar value.

`CN1CCc2ccc(Nc3nccc(-c4c(-c5cccc(NC(=O)Cc6cccs6)c5)nn5cc(F)ccc45)n3)cc2C1` [Example 35, N-[3-(6-fluoro-3-{2-[(2-methyl-1,2,3,4-tetrahydro-7-isoquinolinyl)amino]-4-pyrimidinyl}pyrazolo[1,5-a]pyridin-2-yl)phenyl]-2-(2-thienyl)acetamide]: the “Activity (Method)” value at ErbB2 or EGFR is listed as “++ (B) (at least one pIC50 measurement greater than 6 against either ErbB2 or EGFR but no measurement greater than pIC50 of 7)”. Moreover, the results for the negative logarithm of the IC50 (pIC50) (in assay [1]; in the assay on Colo205 tumor cell lines) were 6.00 to 7.00 and less than 6.00, respectively.

For the compound `CN(C)Cc1cccc(Nc2nccc(-c3c(-c4ccc(F)c(NC(=O)Cc5cccs5)c4)nn4ccccc34)n2)c1` [Example 36, N-(5-{3-[2-({3-[(dimethylamino)methyl]phenyl}amino)-4-pyrimidinyl]pyrazolo[1,5-a]pyridin-2-yl}-2-fluorophenyl)-2-(2-thienyl)acetamide], the “Activity (Method)” value at ErbB2 or EGFR was “++ (B) (at least one pIC50 measurement greater than 6 against either ErbB2 or EGFR but no measurement greater than pIC50 of 7)”. For the same compound, the negative logarithm of the IC50 (pIC50) (in assay [1]; in the assay with Colo205 tumor cell lines) was 6.00 to 7.00 each time.

With `CN(C)C1Cc2ccc(Nc3nccc(-c4c(-c5ccc(F)c(NC(=O)Cc6cccs6)c5)nn5ccccc45)n3)cc2C1` (stereo not drawn) [Example 37, N-{5-[3-(2-{[2-(dimethylamino)-2,3-dihydro-1H-inden-5-yl]amino}-4-pyrimidinyl)pyrazolo[1,5-a]pyridin-2-yl]-2-fluorophenyl}-2-(2-thienyl)acetamide], the “Activity (Method)” value on ErbB2 or EGFR is given as “+++ (B) (at least one pIC50 measurement of greater than 7 against either ErbB2 or EGFR)”. For the same compound, the negative logarithm of the IC50 (pIC50) in assay [1] is more than 7.00; in the assay with Colo205 tumor cell lines it was 6.00 to 7.00.

As for `CN(C)CCOc1cccc(Nc2nccc(-c3c(-c4ccc(F)c(NC(=O)Cc5cccs5)c4)nn4ccccc34)n2)c1` [Example 38, N-[5-(3-{2-[(3-{[2-(dimethylamino)ethyl]oxy}phenyl)amino]-4-pyrimidinyl}pyrazolo[1,5-a]pyridin-2-yl)-2-fluorophenyl]-2-(2-thienyl)acetamide], at ErbB2 or EGFR, the “Activity (Method)” value is given as “++ (B) (at least one pIC50 measurement greater than 6 against either ErbB2 or EGFR but no measurement greater than pIC50 of 7)”. Besides, the negative-log IC50 (pIC50) (in assay [1]; with Colo205 tumor cell lines) was 6.00 to 7.00 each time.

Regarding `CN(C)CCNCc1cccc(Nc2nccc(-c3c(-c4cccc(NC(=O)Cc5cccs5)c4)nn4ccccc34)n2)c1` [Example 40, N-{3-[3-(2-{[3-({[2-(dimethylamino)ethyl]amino}methyl)phenyl]-amino}-4-pyrimidinyl)pyrazolo[1,5-a]pyridin-2-yl]phenyl}-2-(2-thienyl)acetamide], the “Activity (Method)” value at ErbB2 or EGFR is “+++ (B) (at least one pIC50 measurement of greater than 7 against either ErbB2 or EGFR)”. Further, the pIC50 (in assay [1]; in the assay with Colo205 tumor cell lines) was 6.00 to 7.00 in each case.

As to `CS(=O)(=O)CCNCc1cccc(Nc2nccc(-c3c(-c4cccc(NC(=O)Cc5cccs5)c4)nn4ccccc34)n2)c1` [Example 41, N-{3-[3-(2-{[3-({[2-(Methylsulfonyl)ethyl]amino}methyl)phenyl]-amino}-4-pyrimidinyl)pyrazolo[1,5-a]pyridin-2-yl]phenyl}-2-(2-thienyl)acetamide], the “Activity (Method)” value on ErbB2 or EGFR is given as “+++ (B) (at least one pIC50 measurement of greater than 7 against either ErbB2 or EGFR)”. The pIC50 (in assay [1]; in the assay with Colo205 tumor cell lines) was 6.00 to 7.00 each time.

In the case of `NCc1cccc(Nc2nccc(-c3c(-c4cccc(NC(=O)Cc5cccs5)c4)nn4ccccc34)n2)c1` [Example 42, N-{3-[3-(2-{[3-(Aminomethyl)phenyl]amino}-4-pyrimidinyl)pyrazolo[1,5-a]pyridin-2-yl]phenyl}-2-(2-thienyl)acetamide], the “Activity (Method)” value on ErbB2 or EGFR is recorded as “+++ (B) (at least one pIC50 measurement of greater than 7 against either ErbB2 or EGFR)”. Also, the pIC50 in assay [1] is 6.00 to 7.00; in the assay on Colo205 tumor cell lines, less than 6.00.

Turning to `CN1CCC(N(C)CCOc2cc(Nc3nccc(-c4c(-c5cccc(NC(=O)Cc6cccs6)c5)nn5ccccc45)n3)ccc2Cl)C1` (stereo not drawn) [Example 46, N-{3-[3-(2-{[4-Chloro-3-({2-[methyl(1-methyl-3-pyrrolidinyl)amino]-ethyl}oxy)phenyl]amino}-4-pyrimidinyl)pyrazolo[1,5-a]pyridin-2-yl]phenyl}-2-(2-thienyl)acetamide], at ErbB2 or EGFR, the “Activity (Method)” value was “+++ (B) (at least one pIC50 measurement of greater than 7 against either ErbB2 or EGFR)”. Moreover, the pIC50 (in assay [1]; in the assay on Colo205 tumor cell lines) was less than 6.00 throughout.

For the compound `COc1ccc(Nc2nccc(-c3c(-c4cccc(NC(=O)Cc5cccs5)c4)nn4ccccc34)n2)cc1N1CCN(CCS(C)(=O)=O)CC1` [Example 47, N-[3-(3-{2-[(4-(Methyloxy)-3-{4-[2-(methylsulfonyl)ethyl]-1-piperazinyl}phenyl)amino]-4-pyrimidinyl}pyrazolo[1,5-a]pyridin-2-yl)phenyl]-2-(2-thienyl)acetamide], the “Activity (Method)” value at ErbB2 or EGFR is reported as “+++ (B) (at least one pIC50 measurement of greater than 7 against either ErbB2 or EGFR)”. The pIC50 in assay [1] was 6.00 to 7.00; in the assay on Colo205 tumor cell lines, more than 7.00.

For the compound `COc1ccc(-c2nn3ccccc3c2-c2ccnc(Nc3ccc4c(c3)CC(N(C)C)C4)n2)cc1NC(=O)Cc1cccs1` (stereo not drawn) [Example 48, N-{5-[3-(2-{[2-(Dimethylamino)-2,3-dihydro-1H-inden-5-yl]amino}pyrimidin-4-yl)pyrazolo[1,5-a]pyridin-2-yl]-2-methoxyphenyl}-2-(2-thienyl)acetamide], on ErbB2 or EGFR, the “Activity (Method)” value is given as “+ (B) (no pIC50 measurement greater than 6 against either ErbB2 or EGFR)”. Moreover, the pIC50 (in assay [1]; with Colo205 tumor cell lines) was 6.00 to 7.00 each time.

As for `COc1ccc(-c2nn3ccccc3c2-c2ccnc(Nc3ccc4c(c3)CN(C)CC4)n2)cc1NC(=O)Cc1cccs1` [Example 49, N-[2-Methoxy-5-(3-{2-[(2-methyl-1,2,3,4-tetrahydroisoquinolin-7-yl)amino]pyrimidin-4-yl}pyrazolo[1,5-a]pyridin-2-yl)phenyl]-2-(2-thienyl)acetamide], the “Activity (Method)” value on ErbB2 or EGFR is “+ (B) (no pIC50 measurement greater than 6 against either ErbB2 or EGFR)”. Besides, the pIC50 is less than 6.00 in assay [1] and 6.00 to 7.00 in the assay with Colo205 tumor cell lines.
